Measurements taken from US6753348B2, “BTK inhibitors and methods for their identification and use” (Parker Hughes Institute, priority 1998, dated 2004).

Assays:
[1] = test system: OVA-sensitized and challenged mice; assay: Airway responsiveness to methacholine in mouse model of allergic asthma; format: in vivo; conditions: ovalbumin sensitized and challenged, N = 5-6 mice
Procedure: FIG. 28: Inhibition of airway hyperresponsiveness by LFM-A8 in mice. Mice were sensitized with ovalbumin (OVA) on days 0 and 14 intraperitoneally. On days 20, 21 and 23, mice were challenged for 15 min with 2% OVA via airways using a untrasonic nebulizer. After 24 h of the last OVA challenge airway responsiveness to increasing concentrations of methacholine was measured. To study the effect of LFM-A8 on airway hyperresponsiveness, mice were injected intraperitoneally with indicated concentrations of LFM-A8 or vehicle on day 20, 21, and 23 1 h prior and 2 h post OVA challenge and airway responsiveness to increasing concentrations of methacholine was measured. The data points represent the mean±SEM values (N=5-6 mice).
Mouse Model of Allergic Asthma. BALB/c mice were injected intraperitoneally with 20 μg of ovalbumin (OVA) in alum on day 0, and 14. On days 21, 22 and 23 the mice were challenged for 15 min with 2% OVA via their airways by ultrasonic nebulization (Takeda, K., et al., (1997) J Exp Med, 186, 449-454). In order to study the effect of LFM-A8 on allergic asthma, mice were treated with LFM-A8 or vehicle 2 h prior to OVA challenge on day 21, 22 and 23. Mice were assessed for “airway responsiveness” on day 24, as previously reported (Takeda, K., et al., (1997) J Exp Med, 186, 449-454; Hamelmann, E., et al., (1997) Am J Respir Crit Care Med, 156, 766-775) and described below.
Determination of Airway Responsiveness. Airway responsiveness was measured in unrestrained mice by noninvasive whole body plethysmography using a BUXCO BioSystem plethysmography instrument (BUXCO, Trou, N.Y.) (Hamelmann, E., et al., (1997) Am J Respir Crit Care Med, 156, 766-775). The chamber pressure was measured with a transducer connected to a preamplifier module and analyzed by system XA software) (Hamelmann, E., et al., (1997) Am J Respir Crit Care Med, 156, 766-775). The chamber pressure was used as a measure of the difference between thoracic volume expansion or contraction and air volume removed or added to the chamber during breathing. The differential of this function with respect to time produced a pseudo-flow value that is proportionate to the difference between the rate of the thoracic volume expansion and nasal air flow. The pulmonary airflow obstruction assessed by measuring “Enhanced Pause (Penh)” using the following formula according to the manufacturer's recommendations: Penh=PEP/PIP×Pause. […] In order to measure the methacholine responses, mice were placed in the chamber and baseline readings were taken and averaged for 3 min. Mice were nebulized with saline or methacholine at increasing doses (1-100 mg/ml) for 3 min and the Penh readings were taken and averaged for 3 min after each nebulization. […]

[2] = test system: OVA-sensitized and challenged mice; assay: Eosinophil infiltration in bronchoalveolar lavage of OVA challenged mice; format: in vivo, mouse; conditions: ovalbumin sensitized and challenged mice, pretreatment
From the text: FIG. 29: Inhibition of eosinophil infiltration in bronchoalveolar lavage of OVA challenged mice by LFM-A8. The lungs of the mice were lavaged after methacholine challenge and eosinophil numbers were counted. The results of eosinophils are expressed as percent of total cell counts. The data points represent the mean±SEM values obtained from 5-6 mice. *P<0.05 compared to vehicle-treated control, as determined by Student's t test.
Assessment of Eosinophil Infiltration. After airway responsiveness measurements, lungs were lavaged thoroughly with 1 ml saline. The lavage fluid was centrifuged and the supernatant was removed. The cell pellet was resuspended in saline containing 0.1% BSA to give a final cell concentration of 0.1×10^6/ml. Cytospin smears made from the cell suspension were stained with Wright-Giemsa and the number of eosinophils were counted.

BTK in B18.2 cells = BTK in B18.2 cells (Homo sapiens, UniProt Q06187); assay: Cellular BTK activity, immune complex kinase assay after treatment of cells; format: cell-based; conditions: treatment of B18.2 cells
Sequence of BTK in B18.2 cells (Q06187 whole entry): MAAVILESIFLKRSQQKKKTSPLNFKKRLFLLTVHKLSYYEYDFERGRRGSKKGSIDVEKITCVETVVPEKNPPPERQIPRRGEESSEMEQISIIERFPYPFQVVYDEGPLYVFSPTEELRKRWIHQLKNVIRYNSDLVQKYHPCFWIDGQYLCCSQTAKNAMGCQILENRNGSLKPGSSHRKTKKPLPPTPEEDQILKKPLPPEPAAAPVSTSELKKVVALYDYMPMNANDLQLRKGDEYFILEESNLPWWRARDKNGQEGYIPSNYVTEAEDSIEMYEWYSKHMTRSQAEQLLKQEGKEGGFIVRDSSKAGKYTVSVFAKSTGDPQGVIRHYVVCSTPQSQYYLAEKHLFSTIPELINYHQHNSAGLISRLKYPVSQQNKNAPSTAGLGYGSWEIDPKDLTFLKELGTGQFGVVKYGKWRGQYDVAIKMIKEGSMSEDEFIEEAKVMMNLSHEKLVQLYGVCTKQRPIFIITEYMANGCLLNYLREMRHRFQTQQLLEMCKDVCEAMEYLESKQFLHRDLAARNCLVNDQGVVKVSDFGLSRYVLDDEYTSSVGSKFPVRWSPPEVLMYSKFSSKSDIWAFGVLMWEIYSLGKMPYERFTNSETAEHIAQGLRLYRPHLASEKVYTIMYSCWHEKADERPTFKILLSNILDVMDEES
From the text: PIU: Phosphoimager units; DSU, densitometric scanning units; CON, control.
Polyclonal antibodies to BTK were generated by immunization of rabbits with glutathione S-transferase (GST) fusion proteins (Pharmacia Biotech Inc.) containing the first 150 amino acids of BTK. The monoclonal anti-Fas antibody (F22120) was obtained from the Transduction Laboratories, Inc. (Lexington, Ky.). […] Following electrophoresis, kinase gels were dried onto Whatman 3M filter paper and subjected to phosphoimaging on a Molecular Imager (Bio-Rad, Hercules, Calif.) as well as autoradiography on film. Similarly, all chemiluminescent BTK Western blots were subjected to three dimesional densitometric scanning using the Molecular Imager and Imaging Densitometer using the Molecular Analyst/Macontosh version 2.1 software following the specifications of the manufacturer (Bio-Rad). For each drug concentration, a BTK kinase activity index was determined by comparing the ratios of the kinase activity in phosphorimager units (PIU) and density of the protein bands in densitometric scanning units (DSU) to those of the baseline sample and using the formula: Activity Index=[PIU of kinase band/DSU of BTK protein band]test sample: [PIU of kinase band/DSU of BTK protein band]baseline control sample. […]

| Compound | Requirement of Methacholine for an Increase in Penh of 100% ([1]; 15 mg/Kg intraperitoneally) [mg/mL] | Requirement of Methacholine for an Increase in Penh of 200% ([1]; 15 mg/Kg intraperitoneally) [mg/mL] | Requirement of Methacholine for an Increase in Penh of 100% ([1]; 50 mg/Kg intraperitoneally) [mg/mL] | Requirement of Methacholine for an Increase in Penh of 200% ([1]; 50 mg/Kg intraperitoneally) [mg/mL] | reduction of numbers of eosinophils in BAL fluid [2] [%] | cellular BTK activity (BTK in B18.2 cells) |
| --- | --- | --- | --- | --- | --- | --- |
| CC(O)=C(C#N)C(=O)Nc1cccc(C(F)(F)F)c1 [LFM-A8, α-Cyano-β-hydroxy-β-methyl-N-[3-(trifluoromethyl)phenyl]-propenamide] | 36.8 | 82 | 67.5 | 129 | 80 |  |
| C/C(O)=C(\C#N)C(=O)Nc1cc(Br)ccc1Br [LFM-A13, α-Cyano-β-hydroxy-β-methyl-N-(2,5-dibromophenyl)-propenamide] |  |  |  |  |  | dose-dependent inhibition of cellular BTK activity |
